From ChEMBL document CHEMBL4316632, “Antiplasmodial Diterpenoids from Psiadia arguta” (J Nat Prod, 2019)

System: Plasmodium falciparum
Assay: Antiplasmodial activity against Plasmodium falciparum 3D7 assessed as reduction in parasite viability incubated for 48 hrs by APAD colorimetric test
Assay type: functional, organism-based
Details: 3D7, 48 h

Compound	IC50
CC(=O)OCC[C@@H](C)CC[C@@H]1[C@@]2(C)CCCC(C)(C)[C@@H]2CC[C@@]1(C)O	33.2 µM
C/C(=C\CO)CC[C@@H]1[C@@]2(C)CCCC(C)(C)[C@@H]2CC[C@@]1(C)O	36.6 µM
CCC(C)CC(=O)OCCC(C)CC[C@@H]1[C@@]2(C)CCCC(C)(C)[C@@H]2CC[C@@]1(C)O (some centres undefined)	54.8 µM
CC(=O)OC/C=C(\C)CC[C@@H]1[C@@]2(C)CCCC(C)(C)[C@@H]2CC[C@@]1(C)O	29.1 µM
CC(CCOC(=O)CC(C)CC[C@H]1[C@]2(C)CCCC(C)(C)[C@H]2CC[C@]1(C)O)CC[C@@H]1[C@@]2(C)CCCC(C)(C)[C@@H]2CC[C@@]1(C)O (some centres undefined)	> 50 µg/mL
CCC(C)C(=O)OCCC(C)CC[C@@H]1[C@@]2(C)CCCC(C)(C)[C@@H]2CC[C@@]1(C)O (some centres undefined)	58 µM
CC(CCOC=O)CC[C@@H]1[C@@]2(C)CCCC(C)(C)[C@@H]2CC[C@@]1(C)O (some centres undefined)	73 µM
C[C@H](CCO)CC[C@@H]1[C@@]2(C)CCCC(C)(C)[C@@H]2CC[C@@]1(C)O [LABDANEDIOL]	22.2 µM
C=C[C@](C)(O)CC[C@@H]1[C@@]2(C)CCCC(C)(C)[C@@H]2CC[C@@]1(C)O [SCLAREOL]	35 µM
